In ChEMBL document CHEMBL1148758, “Guanidine and 2-aminoimidazoline aromatic derivatives as alpha(2)-adrenoceptor antagonists, 1: toward new antidepressants with heteroatomic linkers” (J Med Chem, 2007):

What was measured:
Format in all cases: functional
[1] = test system: Rattus norvegicus; experiment: Increase in noradrenergic extracellular noradrenaline level in locally administered Sprague-Dawley rat by microdialysis assay
[2] = molecular target: T1, Adrenergic receptor alpha-2 (Homo sapiens, UniProt P08913+P18825+P18089); experiment: Agonist activity at human brain adrenergic alpha2 receptor by [35S]GTPgammaS binding assay
T1 sequence (P08913 whole entry): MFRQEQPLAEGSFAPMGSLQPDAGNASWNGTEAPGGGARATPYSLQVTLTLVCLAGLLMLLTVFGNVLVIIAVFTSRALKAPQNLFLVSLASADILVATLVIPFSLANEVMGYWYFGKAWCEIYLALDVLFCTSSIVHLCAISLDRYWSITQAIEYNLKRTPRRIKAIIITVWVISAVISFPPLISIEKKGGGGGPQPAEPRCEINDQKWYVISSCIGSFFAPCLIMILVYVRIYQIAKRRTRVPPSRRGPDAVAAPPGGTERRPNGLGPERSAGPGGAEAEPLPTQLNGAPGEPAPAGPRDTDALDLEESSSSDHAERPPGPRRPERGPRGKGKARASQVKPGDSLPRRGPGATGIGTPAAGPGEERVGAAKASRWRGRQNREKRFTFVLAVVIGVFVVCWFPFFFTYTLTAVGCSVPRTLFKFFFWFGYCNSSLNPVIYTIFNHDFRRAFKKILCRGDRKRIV
T1 sequence (P18825 whole entry): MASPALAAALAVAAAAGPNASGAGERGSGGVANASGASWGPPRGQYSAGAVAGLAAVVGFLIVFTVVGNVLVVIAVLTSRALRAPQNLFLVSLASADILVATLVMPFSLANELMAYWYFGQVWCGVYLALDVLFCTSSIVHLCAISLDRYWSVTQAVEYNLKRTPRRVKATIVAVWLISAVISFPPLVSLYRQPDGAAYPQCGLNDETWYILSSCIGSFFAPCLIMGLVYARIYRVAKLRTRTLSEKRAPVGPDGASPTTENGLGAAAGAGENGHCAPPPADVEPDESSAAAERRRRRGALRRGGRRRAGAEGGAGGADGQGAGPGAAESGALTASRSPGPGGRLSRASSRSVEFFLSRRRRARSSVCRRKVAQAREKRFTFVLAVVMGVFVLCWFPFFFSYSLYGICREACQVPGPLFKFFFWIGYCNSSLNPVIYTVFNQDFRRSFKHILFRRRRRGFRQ
T1 sequence (P18089 whole entry): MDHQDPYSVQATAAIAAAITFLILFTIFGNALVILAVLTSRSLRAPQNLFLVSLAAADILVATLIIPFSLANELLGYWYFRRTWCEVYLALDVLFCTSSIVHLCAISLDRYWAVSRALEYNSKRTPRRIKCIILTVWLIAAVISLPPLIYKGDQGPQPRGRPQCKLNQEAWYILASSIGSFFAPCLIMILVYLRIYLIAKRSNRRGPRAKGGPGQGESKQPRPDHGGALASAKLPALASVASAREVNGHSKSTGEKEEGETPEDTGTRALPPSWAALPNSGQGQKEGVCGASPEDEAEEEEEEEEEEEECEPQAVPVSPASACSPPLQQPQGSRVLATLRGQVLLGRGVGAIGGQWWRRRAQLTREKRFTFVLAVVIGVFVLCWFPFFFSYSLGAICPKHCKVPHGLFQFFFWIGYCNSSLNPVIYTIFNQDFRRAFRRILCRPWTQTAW

[3] = molecular target: T1, Adrenergic receptor alpha-2; experiment: Antagonist activity at human brain adrenergic alpha-2 receptor assessed as UK-14304-stimulated [35S]GTPgammaS binding at 10 uM
[4] = test system: Rattus norvegicus; experiment: Increase in noradrenergic extracellular noradrenaline level in Sprague-Dawley rat at 8 mg/kg, ip by microdialysis assay; details: route intraperitoneal

COC1(C2=NCCN2)COc2ccccc2O1 (stereo not drawn)
Activity [1]: 287%

COc1ccc(NC2=NCCN2)cc1
EC50 [2]: 30.4 µM

c1cc2c(cc1NC1=NCCN1)OCO2
EC50 [3]: 141 µM
Activity [1]: 240%
Activity [4]: 328%

CN(C)c1ccc(NC2=NCCN2)cc1
Activity [1]: 316%
Activity [4]: 192%

c1ccc2c(c1)OCC(C1=NCCN1)O2 (stereo not drawn) [IDAZOXAN]
Activity [1]: 235%
